Values of other authors as cited in patent publication US20240325353A1, “COMPOUND FOR TREATMENT OF COGNITIVE DISORDERS” (Syndesi Therapeutics SA, priority 2021, published 2024).
Like-named read-outs stand apart in the source and are kept apart here.

Tests used:
[1] = in vivo; cited from earlier work
[2] = target: T1, synaptic vesicle glycoprotein 2A (Homo sapiens, UniProt Q7L0J3); details: oral 100 mg for 4 days; cited from earlier work
T1 construct: from tissue; host or cells: brain of living healthy male subjects (PET)
T1 sequence (Q7L0J3 whole entry): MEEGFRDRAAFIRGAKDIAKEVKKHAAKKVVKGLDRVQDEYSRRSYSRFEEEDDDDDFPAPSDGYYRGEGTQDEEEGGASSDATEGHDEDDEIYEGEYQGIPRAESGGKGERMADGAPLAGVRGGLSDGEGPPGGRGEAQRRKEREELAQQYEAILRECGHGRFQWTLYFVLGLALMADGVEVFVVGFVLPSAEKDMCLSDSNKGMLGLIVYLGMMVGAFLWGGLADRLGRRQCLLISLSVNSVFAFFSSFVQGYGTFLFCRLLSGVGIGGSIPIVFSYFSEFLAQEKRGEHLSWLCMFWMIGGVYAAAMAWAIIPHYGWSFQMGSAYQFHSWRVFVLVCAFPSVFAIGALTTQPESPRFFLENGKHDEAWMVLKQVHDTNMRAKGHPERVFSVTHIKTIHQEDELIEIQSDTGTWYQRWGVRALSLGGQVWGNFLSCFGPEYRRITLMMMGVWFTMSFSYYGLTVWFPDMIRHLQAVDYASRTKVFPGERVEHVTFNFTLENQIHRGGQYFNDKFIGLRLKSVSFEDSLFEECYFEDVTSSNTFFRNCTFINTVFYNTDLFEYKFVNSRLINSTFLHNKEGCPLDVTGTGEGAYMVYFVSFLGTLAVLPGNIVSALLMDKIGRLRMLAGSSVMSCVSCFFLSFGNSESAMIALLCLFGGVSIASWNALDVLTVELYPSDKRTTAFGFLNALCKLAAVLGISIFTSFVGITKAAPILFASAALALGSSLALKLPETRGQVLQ

[3] = target: T2, SV2A (Homo sapiens, UniProt Q7L0J3); details: cited from earlier work
Target sequence in this assay (Q7L0J3 whole entry, species assumed): as the sequence (Q7L0J3 whole entry) above

[4] = target: T3, SV2A (Mus musculus, UniProt Q9JIS5); details: audiogenic mice; cited from earlier work
T3 construct: host or cells: brain of audiogenic mice
T3 sequence (Q9JIS5 whole entry): as the sequence (Q7L0J3 whole entry) above, with S62A, T71A, E144D, A154T, G440S, S482A, I572V, M634L counted along it

[5] = animals and humans; cited from earlier work
[6] = target: T2, SV2A; set-up: host or cells: human brain (prediction for patients); details: cited from earlier work
Target sequence in this assay (Q7L0J3 whole entry): as the sequence (Q7L0J3 whole entry) above

In the case of `CC[C@H](C(N)=O)N1CCCC1=O` (single isomer, unassigned) [dextrorotatory enantiomer of levetiracetam], the activity in epilepsy [1] is given as “completely lacks activity”.

For `CCC[C@@H]1CC(=O)N([C@@H](CC)C(N)=O)C1` [brivaracetam, (2S)-2-[(4R)-2-oxo-4-propyltetrahydro-1H-pyrrol-1-yl] butanamide], the “SV2A occupancy at steady state, peak” value [2] is listed as 82-87%, the “SV2A occupancy at steady state, trough” value [2] is listed as 76-82% and the “affinity of binding to SV2A relative to levetiracetam” value [3] is listed as “higher affinity than levetiracetam”.

For `CC[C@@H](C(N)=O)N1CCCC1=O` [levetiracetam, (S)-(−)-alpha-ethyl-2-oxo-1-pyrrolidine acetamide], the “SV2A occupancy needed to protect against clonic seizure” value [4] is listed as about 90%, the “impact on the cognitive function” value [5] is listed as “no impact on the cognitive function” and the “predicted SV2A occupancy at Cmin and Cmax” value ([6]; patients receiving a 1 g daily dose) is listed as 80 to 93%. The “predicted SV2A occupancy at Cmin and Cmax” value ([6]; patients receiving a 3 g daily dose) was 92 to 98%.
